Counter-ions that a name gives are not always drawn. Like-named read-outs stand apart in the source and are kept apart here.
Experiments:
[1] = tested on: TG3 immunoreactivity in OKA treated MSN1a cells; assay: MSN1a cell culture model, ELISA with TG3 antibody, okadaic acid treated cells; type: cell-based, human; details: 1 μM OKA, 2 hrs at 37° C., read-out: IC50 for inhibition of TG3 immunoreactivity in OKA treated MSN1a cells
Experimental: This assay can thus be used to determine whether a drug is capable of preventing or intervening in AD by attenuating the production of abnormally phosphorylated paired helical filament epitopes associated with AD. To determine whether a drug is capable of preventing or intervening in AD activity, the MSN1a cells containing tau and associated proteins are treated with OKA capable of greatly increasing immunoreactivity of the MSN1a cells with AD specific monoclonal antibodies. Then, either prior to or concomitantly with OKA treatment, a compound of the present invention is added to the culture. If the compound prevents the induction of the AD epitopes in the MSN1a cells treated with OKA, then it is said to have anti-AD activity. If the AD-specific antibodies are highly reactive with the neuroblastoma cells following OKA treatment in the presence of compound, then the compound is said to be ineffectual against AD.
The MSN1a human neuroblastoma line was subcloned from a population of MSN cells obtained from the laboratory of Dr. Peter Davies (Albert Einstein College of Medicine, New York, N.Y.). Cells were grown and maintained in flasks in RPMI 1640 medium, supplemented with 15% fetal calf serum, 100 U/ml penicillin, 100 U/ml Streptomycin, 0.5 ug/ml fungizone under 7.5% CO2 at 37° C.
Stock solutions of drugs were prepared by dissolving the anhydrous powders to final concentrations of either 10 or 20 mM in 50% aqueous or 100% dimethyl sulfoxide (DMSO), respectively. Working solutions of drugs were prepared by dilution of the stock solutions with Kreb's Ringer in Hepes buffer (KRH) (128 mM NaCl, 5 mM KCl, 2.5 mM CaCl2 1.2 mM MgSO4, 1 mM Na2HPO4, 10 mM dextrose, 20 mM Hepes, pH 7.4). OKA is maintained as a 1 mM stock solution in DMSO prior to dilution to 4 μM in KRH.
MSN cells grown in 225 cm^2 flasks are removed from the incubator, their medium decanted and replaced with 50 ml pre-warmed KRH. The cells are harvested by scraping prior to sedimentation at 1000 rpm for 5 min. The supernatants are discarded and the cell pellets are resuspended, the cells counted and diluted to a density of 2×10^4 cells/[…]. The cells are then plated in a 96 well plate at 50 μl/well and 25 μl of 4 μM OKA and 25 μl of drug are then added to the appropriate wells; the entire 96 well plate is then incubated for 2 hrs at 37° C. Depending on the dilution of drug added, this yields individual wells containing 1 μM OKA, 0-64 μM drug and 2×10^4 cells in 0.26% DMSO in KRH. The incubation is terminated by the addition of 20 μl of 6X extraction buffer and immediate freezing at −80° C. for at least one hr. The 6X extraction buffer contains: 25 mM Tris-HCl, pH 7.6, 150 mM NaCl, 5 mM EDTA, 24 mM β-glycerol phosphate, 10 μg/ml APMSF (4-amidinophenylmethane-sulfonyl flouride), and 2.5 μg/ml each of leupeptin, aprotinin, and pepstatin. The plates are thawed in a 37° C. water bath and 20 μl of cell lysate is added to a replica well in an ELISA plate that already contains 80 μl of coating buffer (15 mM Na2CO3 and 35 mM NaHCO3, pH 9.6). The plates are allowed to coat overnight at 4° C. The plates are washed four times with deionized water and then blocked for 30 min at 37° C. with 200 μl/well pre-warmed 1% bovine serum albumin in 10 mM Tris-HCl, pH 7.4, 150 mM NaCl, 3 mM NaN3 (BSA-TBS). After the blocking solution is removed, 100 μl/well of an appropriate dilution of pre-warmed primary antibody (eg., TG3 or PHF-1) in BSA-TBS is added and incubated at 37° C. for 30 min. Incubation is terninated by washing four times in deionized water at which time 100 μl of an appropriate dilution of pre-warmed secondary antibody (conjugated to alkaline phosphatase) in BSA-TBS is added to each well in the ELISA plate. Incubation is performed for 30 min at 37° C. followed by washing 4 times with deionized water. […] of prewarmed chromogenic substrate (1 mg/mnl p-nitrophenyl phosphate in 10% diethanolamine, 3 mM NaN3, 0.5 mM MgCl2, pH 9.8) is added and the plate incubated for 30 min at 37° C. […]

[2] = tested on: microtubule cytoskeleton of human CG neuroblastoma cells; assay: Antimicrotubule activity, tubulin immunofluorescence microscopy; type: cell-based; details: 2 hr at 37° C., read-out: Concentration where microtubule destabilization occurs
Experimental: The compounds of the invention according to formula I are effective in destabilizing microtubules, thus are useful in treating certain neoplastic diseases. Indirect immunofluorescence microscopy using the monoclonal antibodies to tubulin is used herein to determine the activity of the compounds of this invention in promoting depolymerization of the microtubule cytoskeleton in cultured cells. The following assay was employed.
Cultured human CG neuroblastoma cells were seeded 1:3 from confluent cultures onto sterile 11×22 mm coverslips in 6 well tissue culture plates 16 hr prior to treatment. The following day, the tissue culture medium is removed and the cells are exposed to various concentrations of compounds of this invention in Krebs Ringer Hepes (KRH) buffer containing a final concentration of 0.5% DMSO as carrier. Incubations were performed at 37° C. in a humidified 5% CO2 atmosphere for 2 hr. After incubation, the cells were fixed in 3% TEM grade formaldehyde in PBS for 45 min at room temperature.
To visualize the effects of the compounds of the invention on the microtubule cytoskeleton, the cells were processed for tubulin immunofluorescence. Briefly, the cells were permeabilized in 0.5% Triton-X 100 in PBS for 5 min. The cells were washed 2× with PBS and aldehydes reduced using 0.5 mg/ml NaBH4 in PBS for 5 min. Subsequently, the cells were blocked for 10 min in 1.5% BSA and 1.5% nonfat dry milk in PBS (blocking solution, BS) for 10 min. The cells were then incubated for 30 min at 37° C. with the monoclonal antibody Tu27B which recognizes b-tubulin (dilution 1:20 in BS). Subsequently, the cells were washed 2× in PBS and once in BS. The cells were then incubated for 30 min at 37° C. with sheep antimouse IgG conjugated to FITC. After incubation, the cells were washed 2× in PBS and once in BS and incubated for 30 min at 37° C. with rabbit antisheep IgG conjugated to FITC. The cells were rinsed in PBS, counterstained with Hoechst 33285 in PBS (1 μg/ml), and rinsed in PBS. The coverslips were mounted in 9:1 glycerol:PBS containing 1 mg/ml p-phenylenediamine and sealed with nail polish.
The cells were viewed using a Jenalumar epifluorescence microscope equipped with the proper filters for Fluorescein Isothiocyanate (FITC) excitation and emission. Lack of effect of a compound is evidenced by the presence of an intact microtubule network in interphase cells, or a mitotic spindle in dividing cells. Antineoplastic compounds of the invention at effective doses result in the disappearance of microtubules in both interphase and mitotic cells.

Proteus vulgaris SRI 180 = assay: Agar disc diffusion assay; type: cell-based; details: 240 ug/disc, about 24 hr at 37° C., 0 = no measurable zone; for zone of inhibition at 240 µg/disc: Proteus vulgaris, SRI180, read-out: Diameter of the zone of inhibition, P. vulgaris
Experimental: (§1) The activity of the compounds is determined using the following assay. The compound is dissolved in DMSO at a concentration of 6 mg/ml and then diluted with water to a final concentration of 3 mg/ml in 50% DMSO (% DMSO was shown not to be inhibitory to the test organisms). An aliquot (0.08 ml) of each drug solution was transferred to filter paper discs (12.7 mm diameter, Scmeicherand Schuell) for use in the agar diffusion assay. The concentration of each drug on the filter paper disc was 240 ug/disc. The test organisms included the following: Gram-positive aerobes (Staphylococcus aureus SRI 1323, Streptococcus pneumoniae SRI 1167); Gram-negative aerobe (Proteus vulgaris SRI 180); and the yeast Candida albicans SRI 523. An agar disc diffusion assay was used to evaluate the antimicrobial activity of the test compounds. Briefly, cultures were prepared from 16-20 hr agar slant cultures by inoculating in physiological saline to a turbidity equivalent to a #0.5 McFarland turbidity standard for the bacteria and a #3 McFarland standard for C. albicans. The surface of Mueller-Hinton agar (15×100 mm plates, mm) were evenly inoculated with each standardized culture using a cotton swab. Filter paper discs containing the drug concentration listed above were then placed on the inoculated agar plates along with a disc containing the solvent used to dissolve each drug. The plates were incubated at 37° C. for about 24 hr and the diameters of the zones of inhibition measured with a vernier caliper. Positive control drugs consisted of streptomycin for use with the bacterial strains and 5-fluorocytosine for use with C. albicans. The positive control drugs were assayed as described above for the compounds of the present invention using the same concentration.

[3] = tested on: Staphylococcus aureus SRI 1323; assay: Agar disc diffusion assay; type: cell-based; details: 240 ug/disc, about 24 hr at 37° C.; for zone of inhibition at 240 µg/disc: Staphylococcus aureus, SRI1323, read-out: Diameter of the zone of inhibition, S. aureus
Experimental: as §1

[4] = tested on: Streptococcus pneumoniae SRI 1167; assay: Agar disc diffusion assay; type: cell-based; details: 240 ug/disc, about 24 hr at 37° C., + = zone too large to measure; for zone of inhibition at 240 µg/disc: Streptococcus pneumoniae, SRI1167, read-out: Diameter of the zone of inhibition, S. pneumoniae
Experimental: as §1

Candida albicans SRI 523 = assay: Agar disc diffusion assay; type: cell-based; details: 240 ug/disc, about 24 hr at 37° C.; for zone of inhibition at 240 µg/disc: Candida albicans, SRI523, read-out: Diameter of the zone of inhibition, C. albicans
Experimental: as §1

With `O=C(CCN1CCN(Cc2ccccc2)CC1)c1cc2ccccc2o1` [Example 10, 1-(Benzofur-2″-yl)-3-(4′-benzyl-1′-piperazinyl)-1-propanone dihydrochloride] the IC50 ([1]; Homo sapiens) was 6 µM and the minimal effective concentration ([2]; Neuroblastoma cell) was 20 µM.
`Cl.Cl.O=C(CCN1CCN(Cc2ccccc2)CC1)c1ccc(F)c(Br)c1` [Example 25, 1-(p-Fluoro-m-bromophenyl)-3-(4′-benzyl-1′-piperazinyl)-1-propanone dihydrochloride] was tested, and the “Diameter of the zone of inhibition, P. vulgaris” value (Proteus vulgaris SRI 180) was 16.0 mm, the “Diameter of the zone of inhibition, S. aureus” value [3] was 27.5 mm and the “Diameter of the zone of inhibition, S. pneumoniae” value [4] was 36.3 mm. For the same compound, the “Diameter of the zone of inhibition, C. albicans” value (Candida albicans SRI 523) was 26.0 mm.
With `O=C(CCN1CCN(C(=O)c2sc3ccccc3c2Cl)CC1)c1ccc(Br)s1` [Example 86, 1-(5″-Bromo-2″-thienyl)-3-[4′-(3′″-chlorobenzo[b]-2′″-thienoyl)-1′-piperazinyl]-1-propanone dihydrochloride] the zone of inhibition at 240 µg/disc (Proteus vulgaris SRI 180) was 13.9 mm, the zone of inhibition at 240 µg/disc [3] was 16.2 mm and the zone of inhibition at 240 µg/disc [4] was 19.3 mm. For the same compound, the zone of inhibition at 240 µg/disc (Candida albicans SRI 523) was 17.3 mm.
`Cl.Cl.O=C(CCN1CCN(Cc2ccccc2)CC1)c1cc([N+](=O)[O-])c(Cl)s1` [Example 95, 1-(5″-Chloro-4″-nitro-2″-thienyl)-3-(4′-benzyl-1′-piperazinyl)-1-propanone dihydrochloride] was tested, and the IC50 [1] was 2.8 µM and the minimal effective concentration [2] was 20 µM.
For `Cl.Cl.O=C(CCN1CCN(Cc2ccccc2)CC1)c1csc([N+](=O)[O-])c1` [Example 80, 1-(5″-Nitro-3″-thienyl)-3-(4′-benzyl-1′-piperazinyl)-1-propanone dihydrochloride], the “Diameter of the zone of inhibition, P. vulgaris” value (Proteus vulgaris SRI 180) was 13.8 mm, the “Diameter of the zone of inhibition, S. aureus” value [3] was 17.2 mm and the “Diameter of the zone of inhibition, C. albicans” value (Candida albicans SRI 523) was 14.5 mm. The IC50 [1] was 5.7 µM.
With `Cl.Cl.O=C(CCN1CCN(C(c2ccccc2)c2ccc(Cl)cc2)CC1)c1ccc(Br)s1` (centres unmarked) [Example 78, 1(5″-Bromo-2″-thienyl)-3-[4′-(1′″-p-chlorophenyl-1′″-phenylmethyl)-1′-piperazinyl]-1-propanone dihydrochloride] the “Diameter of the zone of inhibition, P. vulgaris” value (Proteus vulgaris SRI 180) was 14.5 mm, the “Diameter of the zone of inhibition, S. aureus” value [3] was 16.2 mm and the “Diameter of the zone of inhibition, S. pneumoniae” value [4] was 19.7 mm. The “Diameter of the zone of inhibition, C. albicans” value (Candida albicans SRI 523) was 15.2 mm.
Work on `Nc1nc(=O)[nH]cc1F` [5-fluorocytosine, reference compound] yielded a zone of inhibition at 240 µg/disc (Candida albicans SRI 523) of 33.5 mm.
`[H]/N=C(/N)N[C@H]1[C@H](O)[C@@H](O)[C@H](O[C@@H]2O[C@@H](C)[C@](O)(C=O)[C@H]2O[C@@H]2O[C@@H](CO)[C@H](O)[C@@H](O)[C@@H]2NC)[C@@H](N/C(N)=N\[H])[C@@H]1O` [streptomycin, reference compound] was tested, and the zone of inhibition at 240 µg/disc (Proteus vulgaris SRI 180) was 37.6 mm, the zone of inhibition at 240 µg/disc [3] was 28.4 mm and the zone of inhibition at 240 µg/disc [4] was 39.8 mm.
In the case of `Cl.Cl.N#Cc1ccc(C(=O)CCN2CCN(Cc3ccccc3)CC2)s1` [Example 85, 1-(5″-Cyano-2″-thienyl)-3-(4′-benzyl-1′-piperazinyl)-1-propanone dihydrochloride], the minimal effective concentration [2] is reported as 20 µM.
For `O=C(CCN1CCN(C(=O)c2c(F)cccc2F)CC1)c1ccc([N+](=O)[O-])cc1` [Example 40, 1-(p-Nitrophenyl)-3-[4′-(2″,6″-difluorobenzoyl)-1′-piperazinyl]-1-propanone hydrochloride], the minimal effective concentration ([2]; Neuroblastoma cell) was 20 µM.
